Experimental data from patent US8546401B2, “5,6-disubstituted oxindole-derivatives and use thereof for treating vasopressin-dependent diseases” (AbbVie Deutschland GmbH & Co. KG, priority 2007, dated 2013).

Assays:
[1] = molecular target: T1, human vasopressin V1b receptor (Homo sapiens, UniProt P47901); assay: Vasopressin V1b receptor binding assay; conditions: CHO-K1 membranes, 3H-AVP displacement
T1 construct: expressed in transfected cells; host or cells: CHO-K1 (cell line hV1b_3H2_CHO), membrane preparation
T1 sequence (P47901 1-424): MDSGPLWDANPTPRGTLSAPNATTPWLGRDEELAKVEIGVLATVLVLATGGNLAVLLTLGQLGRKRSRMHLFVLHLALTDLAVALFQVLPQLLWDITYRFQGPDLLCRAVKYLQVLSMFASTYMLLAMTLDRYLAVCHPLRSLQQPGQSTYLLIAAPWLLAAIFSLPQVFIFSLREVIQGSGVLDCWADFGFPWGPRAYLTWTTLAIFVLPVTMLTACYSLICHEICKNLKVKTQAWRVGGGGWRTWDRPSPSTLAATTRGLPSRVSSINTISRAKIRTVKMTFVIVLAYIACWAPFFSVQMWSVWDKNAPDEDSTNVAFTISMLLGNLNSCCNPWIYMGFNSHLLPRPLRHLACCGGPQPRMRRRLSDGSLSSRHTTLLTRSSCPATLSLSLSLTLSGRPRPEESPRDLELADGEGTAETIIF
Method: 1. Vasopressin V1b Receptor Binding Assay:
The test substances were dissolved in a concentration of 10^−2 M in DMSO and further diluted to 5×10^−4 M to 5×10^−3 M. These serial DMSO predilutions were diluted 1:10 with assay buffer. The substance concentration was further diluted 1:5 in the assay mixture (2% DMSO in the mixture).
(§1) CHO-K1 cells with stably expressed human vasopressin V1b receptor (clone 3H2) were harvested and homogenized in 50 mM Tris-HCl and in the presence of protease inhibitors (Roche complete Mini #1836170) using a Polytron homogenizer at intermediate setting for 2×10 seconds, and subsequently centrifuged at 40 000×g for 1 h. The membrane pellet was again homogenized and centrifuged as described and subsequently taken up in 50 mM Tris-HCl, pH 7.4, homogenized and stored in aliquots frozen in liquid nitrogen at −190° C.
(§2) The binding assay was carried out by the method based on that of Tahara et al. (Tahara A et al., Brit. J. Pharmacol. 125, 1463-1470 (1998)).
(§3) The incubation buffer was: 50 mM Tris, 10 mM MgCl2, 0.1% BSA, pH 7.4.
In the assay mixture (250 μl), membranes (50 μg/ml protein in incubation buffer) from CHO-K1 cells with stably expressed human V1b receptors (cell line hV1b—3H2_CHO) were incubated with 1.5 nM ^3H-AVP (8-Arg-vasopressin, PerkinElmer #18479) in incubation buffer (50 mM Tris, 10 mM MgCl2, 0.1% BSA, pH 7.4) (total binding) or additionally with increasing concentrations of test substance (displacement experiment). The nonspecific binding was determined with […] (Bachem #H1780). All determinations were carried out as triplicate determinations. After incubation (60 minutes at room temperature), the free radioligand was filtered off by vacuum filtration (Skatron cell harvester 7000) through Wathman GF/B glass fiber filter mats, and the filters were transferred into scintillation vials. The liquid scintillation measurement took place in a model 2000 or 2200CA Tricarb instrument (Packard). Conversion of the measured cpm into dpm was carried out with the aid of a standard quench series.
(§4) The binding parameters were calculated by nonlinear regression in SAS. The algorithms of the program operate in analogy to the LIGAND analysis program (Munson P J and Rodbard D, Analytical Biochem. 107, 220-239 (1980)). The Kd of ^3H-AVP for the recombinant human V1b receptors is 0.4 nM and was used to determine the Ki.

[2] = molecular target: T2, human vasopressin V1a receptor (Homo sapiens, UniProt P37288); assay: Vasopressin V1a receptor binding assay; conditions: selectivity quotient, human receptors
T2 construct: expressed in transfected cells; host or cells: CHO-K1 (cell line hV1a_5_CHO), membrane preparation
T2 sequence (P37288 whole entry): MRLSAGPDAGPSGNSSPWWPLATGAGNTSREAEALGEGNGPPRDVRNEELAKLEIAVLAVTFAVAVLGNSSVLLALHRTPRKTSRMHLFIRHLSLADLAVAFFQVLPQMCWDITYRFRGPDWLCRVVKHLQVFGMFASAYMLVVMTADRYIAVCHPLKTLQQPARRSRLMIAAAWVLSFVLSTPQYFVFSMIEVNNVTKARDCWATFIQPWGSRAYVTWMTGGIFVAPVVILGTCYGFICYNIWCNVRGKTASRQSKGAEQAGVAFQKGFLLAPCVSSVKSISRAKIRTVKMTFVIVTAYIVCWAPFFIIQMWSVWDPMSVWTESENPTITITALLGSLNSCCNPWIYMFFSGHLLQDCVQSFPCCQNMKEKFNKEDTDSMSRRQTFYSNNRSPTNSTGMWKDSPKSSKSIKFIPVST
Method: 2. Vasopressin V1a Receptor Binding Assay:
The test substances were dissolved in a concentration of 10^−2 M in DMSO. Further dilution of these DMSO solutions took place in incubation buffer (50 mM Tris, 10 mM MgCl2, 0.1% BSA, pH 7.4).
as §1, with “V1a” for “V1b”, “5)” for “3H2)”
as §2, §3
In the assay mixture (250 μl), membranes (20 μg/ml protein in incubation buffer) from CHO-K1 cells with stably expressed human V1a receptors (cell line hV1a—5_CHO) were incubated with 0.04 nM ^125I-AVP (8-Arg-vasopressin, NEX 128) in incubation buffer (50 mM Tris, 10 mM MgCl2, 0.1% BSA, pH 7.4) (total binding) or additionally with increasing concentrations of test substance (displacement experiment). The nonspecific binding was determined with 1 μM AVP (Bachem #H1780). Triplicate determinations were carried out.
After incubation (60 minutes at room temperature), the free radioligand was filtered off by vacuum filtration (Skatron cell harvester 7000) through Wathman GF/B glass fiber filter mats, and the filters were transferred into scintillation vials.
The liquid scintillation measurement took place in a model 2000 or 2200CA Tricarb instrument (Packard). Conversion of the measured cpm into dpm was carried out with the aid of a standard quench series.
as §4, with “^125I-AVP” for “^3H-AVP”, “hV1a” for “human V1b”, “was determined in saturation experiments. A Kd of 1.33” for “is 0.4”, “nM” for “nM and”

human oxytocin receptors = molecular target: T3, human oxytocin receptors (Homo sapiens, UniProt P30559); assay: Oxytocin receptor binding assay; conditions: selectivity quotient
T3 construct: expressed in transfected cells; host or cells: HEK-293, transient expression; lysed and homogenized cells
T3 sequence (P30559 1-389): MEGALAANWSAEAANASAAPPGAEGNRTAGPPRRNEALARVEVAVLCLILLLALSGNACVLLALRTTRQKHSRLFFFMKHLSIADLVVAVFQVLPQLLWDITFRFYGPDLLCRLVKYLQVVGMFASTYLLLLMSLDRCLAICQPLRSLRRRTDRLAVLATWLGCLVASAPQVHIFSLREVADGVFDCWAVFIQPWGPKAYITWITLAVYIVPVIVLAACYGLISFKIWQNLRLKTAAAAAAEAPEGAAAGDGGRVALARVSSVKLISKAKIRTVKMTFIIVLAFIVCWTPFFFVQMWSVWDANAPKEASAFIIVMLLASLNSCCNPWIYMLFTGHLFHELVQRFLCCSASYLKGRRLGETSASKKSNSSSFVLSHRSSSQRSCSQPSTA
Method: 4. Oxytocin Receptor Binding Assay
The substances were dissolved in a concentration of 10^−2 M in DMSO and diluted with incubation buffer (50 mM Tris, 10 mM MgCl2, 0.1% BSA, pH 7.4).
Confluent HEK-293 cells with transiently expressing recombinant human oxytocin receptors were centrifuged at 750×g at room temperature for 5 minutes. The residue was taken up in ice-cold lysis buffer (50 mM Tris-HCl, 10% glycerol, pH 7.4 and Roche complete protease inhibitor) and subjected to an osmotic shock at 4° C. for 20 minutes. The lyzed cells were then centrifuged at 750×g at 4° C. for 20 minutes, the residue was taken up in incubation buffer, and aliquots of 10^7 cells/ml were prepared. The aliquots were frozen at −80° C. until used.
On the day of the experiment, the cells were thawed, diluted with incubation buffer and homogenized using a Multipette Combitip (Eppendorf, Hamburg). The reaction mixture of 0.250 ml was composed of 2 to 5×10^4 recombinant cells, 3-4 nM ^3H-oxytocin (PerkinElmer, NET 858) in the presence of test substance (inhibition plot) or only incubation buffer (total binding). The nonspecific binding was determined with 10^−6 M oxytocin (Bachem AG, H2510). Triplicate determinations were set up. Bound and free radioligand were separated by filtration under vacuum with Whatman GF/B glass fiber filters with the aid of a Skatron cell harvester 7000. The bound radioactivity was determined by liquid scintillation measurement in a Tricarb Beta counter, model 2000 or 2200CA (Packard).
The binding parameters were calculated by nonlinear regression analysis (SAS) in analogy to the LIGAND program of Munson and Rodbard (Analytical Biochem 1980; 107: 220-239). The Kd of ^3H-oxytocin for the recombinant hOT receptors is 7.6 nM and was used to determine the Ki.

Ki [1] [nM] | Ki(h − V1a)/Ki(h − V1b)* [2] | Ki(h − OT)/Ki(h − V1b)* (human oxytocin receptors) | SMILES
1 to 10 | + (10-<25) | +++ (>75) | CCOc1ccccc1C1(NC(=O)N2CCC(N3CCN(CC)CC3)CC2)C(=O)N(S(=O)(=O)c2ccc(OC)cc2)c2cc(F)c(C#N)cc21 (stereo not drawn) [Example 17, 4-(4-Ethylpiperazin-1-yl)piperidine-1-[5-cyano-3-(2-ethoxyphenyl)-6-fluoro-1-(4-methoxyphenylsulfonyl)-2-oxo-2,3-dihydro-1H-indol-3-yl]carboxamide]
1 to 10 | ++ (25-75) | + (10-<25) | CCOc1ncccc1C1(OC(=O)N2CCN(C3CCN(C)CC3)CC2)C(=O)N(S(=O)(=O)c2ccc(OC)cc2OC)c2cc(Cl)c(F)cc21 (stereo not drawn) [Example 46, 6-Chloro-1-(2,4-dimethoxyphenylsulfonyl)-3-(2-ethoxypyridin-3-yl)-5-fluoro-2-oxo-2,3-dihydro-1H-indol-3-yl 4-(1-methylpiperidin-4-yl)piperazine-1-carboxylate]
1 to 10 | ++ (25-75) | + (10-<25) | CCOc1ccccc1C1(NC(=O)N2CCN(C3CCN(C)CC3)CC2)C(=O)N(S(=O)(=O)c2ccc(OC)cc2)c2cc(F)c(C#N)cc21 (stereo not drawn) [Example 10, 4-(1-Methylpiperidin-4-yl)piperazine-1-[5-cyano-3-(2-ethoxyphenyl)-6-fluoro-1-(4-methoxyphenylsulfonyl)-2-oxo-2,3-dihydro-1H-indol-3-yl]carboxamide]
1 to 10 | + (10-<25) | +++ (>75) | CCOc1ncccc1C1(OC(=O)N2CCN(C3CCN(C)CC3)CC2)C(=O)N(S(=O)(=O)c2ccccc2)c2cc(F)c(C#N)cc21 (stereo not drawn) [Example 40, 1-Phenylsulfonyl-5-cyano-3-(2-ethoxypyridin-3-yl)-6-fluoro-2-oxo-2,3-dihydro-1H-indol-3-yl 4-(1-methylpiperidin-4-yl)piperazine-1-carboxylate]
1 to 10 | +++ (>75) | +++ (>75) | CCOc1ncccc1C1(NC(=O)N2CCN(C3CCN(C)CC3)CC2)C(=O)N(S(=O)(=O)c2ccc(OC)cc2)c2cc(F)c(C#N)cc21 (stereo not drawn) [Example 5, 4-(1-Methylpiperidin-4-yl)piperazine-1-[5-cyano-3-(2-ethoxypyridin-3-yl)-6-fluoro-1-(4-methoxyphenylsulfonyl)-2-oxo-2,3-dihydro-1H-indol-3-yl]carboxamide]
1 to 10 | +++ (>75) | +++ (>75) | CCOc1ncccc1C1(NC(=O)N2CCN(C3CCN(CC)CC3)CC2)C(=O)N(S(=O)(=O)c2ccc(OC)cc2)c2cc(F)c(C#N)cc21 (stereo not drawn) [Example 6, 4-(1-Ethylpiperidin-4-yl)piperazine-1-[5-cyano-3-(2-ethoxypyridin-3-yl)-6-fluoro-1-(4-methoxyphenylsulfonyl)-2-oxo-2,3-dihydro-1H-indol-3-yl]carboxamide]
1 to 10 | +++ (>75) | +++ (>75) | CCOc1ncccc1C1(NC(=O)N2CCN(C3CCN(CC)CC3)CC2)C(=O)N(S(=O)(=O)c2ccc(OC)cc2OC)c2cc(F)c(F)cc21 (stereo not drawn) [Example 33, 4-(1-Ethylpiperidin-4-yl)piperazine-1-[1-(2,4-dimethoxyphenylsulfonyl)-3-(2-ethoxy-pyridin-3-yl)-5,6-difluoro-2-oxo-2,3-dihydro-1H-indol-3-yl]carboxamide]

SMILES | Ki [1] [nM] | Ki(h − V1a)/Ki(h − V1b)* [2] | Ki(h − OT)/Ki(h − V1b)* (human oxytocin receptors)
CCOc1ncccc1C1(NC(=O)N2CCC(N3CCN(CC)CC3)CC2)C(=O)N(S(=O)(=O)c2ccc(OC)cc2OC)c2cc(F)c(C#N)cc21 (stereo not drawn) [Example 4, 4-(4-Ethylpiperazin-1-yl)piperidine-1-[5-cyano-1-(2,4-dimethoxyphenylsulfonyl)-3-(2-ethoxypyridin-3-yl)-6-fluoro-2-oxo-2,3-dihydro-1H-indol-3-yl]carboxamide] | < 1 | ++ (25-75) | +++ (>75)
